Laboratory results from publication PMC12040169 (PLOS Biology, 2025).

Assay: in vitro
Details: human, hela cells, % viability

| SMILES | viability at 28.5 h, 10 µM [%] |
| --- | --- |
| O=C(c1ccc2nccnc2c1)N1CCCc2ccccc21 [CBK200257] | 95.3 |
| O=C(COc1cccnc1)N1CCCc2ccccc21 [CBK200258] | 92.5 |
| O=C(c1cncnc1)N1CCCc2ccccc21 [CBK200259] | 91.4 |
| CN1CCC(C(=O)N2CCCc3ccccc32)CC1 [CBK200260] | 95 |
| Cc1cc2ncn(CC(=O)NC3Cc4ccccc4C3)c2cc1C [CBK200261] | 97.3 |
| CN1CCC(C(=O)NC2Cc3ccccc3C2)CC1 [CBK200263] | 118 |
| O=C(c1cnc2ccccc2n1)N1CCc2ccccc21 [CBK200267] | 117 |
| O=C(COc1cccnc1)N1CCc2ccccc21 [CBK200268] | 107 |
| O=C(c1ccc2[nH]ccc2c1)N1CCc2ccccc21 [CBK200269] | 101 |
| Cc1cc2ncn(CC(=O)N3CCc4ccccc43)c2cc1C [CBK200270] | 114 |
| O=C(CN1CCOCC1)N1CCc2ccccc21 [CBK200271] | 96.3 |
| O=C(c1cnc2ccccc2c1)N1CCC(F)CC1 [CBK200273] | 102 |
| O=C(c1ccc2ccccc2n1)N1CCC(F)CC1 [CBK200276] | 102 |
| O=C(c1nc2ccccc2[nH]1)N1CCC(F)CC1 [CBK200278] | 90.3 |
| O=C(c1ccncc1)N1CCc2ccccc21 [CBK200280] | 93.7 |
| COc1ccc(C(=O)N2CCc3ccccc32)c(OC)n1 [CBK200281] | 106 |
| O=C(c1n[nH]c2ccccc12)N1CCc2ccccc21 [CBK200282] | 90.6 |
| O=C(c1cnc2ccccc2c1)N1CCc2ccccc21 [CBK200284] | 77.7 |
| C[C@@H]1CN(C(=O)OCc2ncc(F)cc2F)C[C@H](C)O1 [CBK200286] | 103 |
| Cc1ccc(CNC(=O)OCCN2CCN(C)CC2)n1C [CBK200287] | 86.8 |
| Cc1ccc(NC(=O)c2cnccn2)c(C)n1 [CBK200291] | 97.2 |
| COc1ncccc1C(=O)Nc1ccc(C)nc1C [CBK200292] | 90.6 |
| Cc1ccc(NC(=O)c2ccc3ccccc3n2)c(C)n1 [CBK200293] | 83.2 |
| Cc1ccc(NC(=O)c2nccc3ccccc23)c(C)n1 [CBK200294] | 93.2 |
| Cc1ccc(NC(=O)c2cscn2)c(C)n1 [CBK200297] | 102 |

| SMILES | viability at 28.5 h, 10 µM [%] |
| --- | --- |
| Cc1ccc(NC(=O)Cc2cn(C)c3ccccc23)c(C)n1 [CBK200298] | 61.9 |
| Cc1noc(C)c1NC(=O)c1ccnc2ccccc12 [CBK200302] | 96.3 |
| Cc1noc(C)c1NC(=O)c1cc2ccccc2[nH]1 [CBK200303] | 95.6 |
| Cc1noc(C)c1NC(=O)c1ccc2ccccc2n1 [CBK200309] | 101 |
| Cc1noc(C)c1NC(=O)c1nc2ccccc2[nH]1 [CBK200315] | 81.5 |
| O=C(c1ccncc1)N1Cc2ccccc2C1 [CBK200316] | 103 |
| Cc1ccc(C(=O)N2Cc3ccccc3C2)cn1 [CBK200318] | 94.9 |
| O=C(c1ccc[nH]1)N1Cc2ccccc2C1 [CBK200319] | 89.4 |
| O=C(Cc1cccnc1)N1Cc2ccccc2C1 [CBK200320] | 90.5 |
| O=C(Cc1c[nH]c2ccccc12)N1Cc2ccccc2C1 [CBK200321] | 103 |
| O=C(c1ccc2nc[nH]c2c1)N1Cc2ccccc2C1 [CBK200322] | 103 |
| O=C(c1cnccc1C(F)(F)F)N1Cc2ccccc2C1 [CBK200323] | 105 |
| COc1ncccc1C(=O)N1Cc2ccccc2C1 [CBK200324] | 101 |
| O=C(c1csnn1)N1Cc2ccccc2C1 [CBK200325] | 111 |
| Cc1nc(C)c(C(=O)N2Cc3ccccc3C2)s1 [CBK200326] | 95.9 |
| O=C(c1ccno1)N1Cc2ccccc2C1 [CBK200327] | 97 |
| Cc1cc(C(=O)N2Cc3ccccc3C2)n[nH]1 [CBK200328] | 100 |
| Cn1cncc1C(=O)N1Cc2ccccc2C1 [CBK200329] | 106 |
| O=C(c1ccc2[nH]nnc2c1)N1CCc2ccccc2C1 [CBK200332] | 103 |
| Cc1noc(C)c1C(=O)N1CCc2ccccc2C1 [CBK200333] | 103 |
| O=C(Cc1ccccn1)N1CCc2ccccc2C1 [CBK200334] | 104 |
| O=C(Cn1cnnn1)N1CCc2ccccc2C1 [CBK200335] | 101 |
| COc1ncccc1C(=O)N1CCc2ccccc2C1 [CBK200336] | 96.9 |
| Cn1c(C(=O)N2CCc3ccccc3C2)cc2ccccc21 [CBK200337] | 96.7 |
| CCOc1ccsc1C(=O)N1CCc2ccccc2C1 [CBK200339] | 95.1 |

| SMILES | viability at 28.5 h, 10 µM [%] |
| --- | --- |
| Cc1cc(C(=O)N2CCCc3ccccc32)n[nH]1 [CBK200346] | 92 |
| O=C(c1cscn1)N1CCCc2ccccc21 [CBK200348] | 102 |
| Cn1cc(CC(=O)N2CCCc3ccccc32)c2ccccc21 [CBK200349] | 64.8 |
| O=C(Cc1ccncc1)NC1Cc2ccccc2C1 [CBK200351] | 94.1 |
| O=C(NC1Cc2ccccc2C1)c1nccc2ccccc12 [CBK200356] | 97 |
| O=C(NC1Cc2ccccc2C1)c1ccno1 [CBK200358] | 99.4 |
| CN(C)c1ccc(CC(=O)NC2Cc3ccccc3C2)cc1 [CBK200360] | 105 |
| Cn1cncc1C(=O)NC1Cc2ccccc2C1 [CBK200362] | 107 |
| O=C(c1ccc2[nH]nnc2c1)N1CCc2ccccc21 [CBK200365] | 102 |
| O=C(Cc1c[nH]c2ccccc12)N1CCc2ccccc21 [CBK200366] | 107 |
| O=C(Cn1cnnn1)N1CCc2ccccc21 [CBK200367] | 97.4 |
| C[C@@H]1CN(C(=O)c2ccc3[nH]nnc3c2)C[C@H](C)O1 [CBK200369] | 104 |
| CCN1CCN(C(=O)c2c(C)noc2C)CC1 [CBK200374] | 93.6 |
| CCN1CCN(C(=O)Cc2cccnc2)CC1 [CBK200375] | 92.3 |
| Cc1ccc(NC(=O)COc2cccnc2)c(C)n1 [CBK200379] | 102 |
| Cc1noc(C)c1NC(=O)c1cncnc1 [CBK200382] | 112 |
| O=C(CN1CCOCC1)N1CCC(F)CC1 [CBK200383] | 83.5 |
| O=C(c1cncnc1)N1CCC(F)CC1 [CBK200384] | 92.1 |
| Cc1ccc(NC(=O)c2cc(C)[nH]n2)c(C)n1 [CBK200387] | 83.8 |
| Cc1noc(C)c1NC(=O)c1cnccn1 [CBK200390] | 89.9 |
| Cc1noc(C)c1NC(=O)Cc1cccnc1 [CBK200391] | 96.6 |
| Cc1ccncc1C(=O)Nc1c(C)noc1C [CBK200393] | 80.7 |
| Cc1noc(C)c1NC(=O)c1ccno1 [CBK200394] | 87 |
| Cc1noc(C)c1NC(=O)c1cncn1C [CBK200396] | 115 |
| Cc1ccncc1C(=O)N1CCc2ccccc21 [CBK200400] | 109 |

| SMILES | viability at 28.5 h, 10 µM [%] |
| --- | --- |
| COc1ncccc1C(=O)N1CCc2ccccc21 [CBK200402] | 91.5 |
| O=C(c1nccc2ccccc12)N1CCc2ccccc21 [CBK200405] | 93.5 |
| Cn1c(C(=O)N2CCc3ccccc32)cc2ccccc21 [CBK200406] | 110 |
| O=C(c1nc2ccccc2[nH]1)N1CCc2ccccc21 [CBK200411] | 87.8 |
| Cn1cncc1C(=O)N1CCc2ccccc21 [CBK200412] | 86.7 |
| O=C(OCCc1c[nH]c2ccccc12)N1CCOCC1 [CBK200415] | 106 |
| C[C@@H]1CN(C(=O)OCCc2ccsc2)C[C@H](C)O1 [CBK200417] | 89.3 |
| CCSc1ccccc1-c1nc2c(=O)n(C)c(-c3ccc(CN4CCCC4)cc3)cc2o1 [CBK200426T] | 77.9 |
| Cn1c(-c2ccc(CN3CCCC3)cc2)cc2oc(-c3ccccc3SCCO)nc2c1=O [CBK200427T] | 94.7 |
| O=c1[nH]c(=O)n([C@H]2C[C@H](O)[C@@H](CO)O2)cc1I [CBK200650] | 96.5 |
| COc1ccc(Cn2c(C)nc3ccccc32)cc1 [CBK201156] | 116 |
| O=c1[nH]cc([C@H]2C[C@@H](O)[C@@H](CO)O2)c(=O)[nH]1 [CBK201158] | 95.4 |
| O=c1ccn([C@@H]2O[C@H](CO)[C@H](O)C2O)c(=O)[nH]1 (stereo partly shown) [CBK201159] | 95.1 |
| Nc1nc(=O)n([C@@H]2O[C@H](CO)[C@H](O)C2O)cc1CO (stereo partly shown) [CBK201160] | 92.7 |
| Nc1nc(=O)n([C@H]2C[C@@H](O)[C@@H](CO)O2)cc1Br [CBK201161] | 97.1 |
| Nc1ncnc2c1nc(OCc1ccccc1)n2C1CC(O)C(CO)O1 (stereo not shown) [CBK201164] | 94.9 |
| Cc1ccc(S(=O)(=O)OC[C@H]2O[C@@H](n3cc(C)c(=O)[nH]c3=O)C[C@H]2O)cc1 [CBK201165] | 88.1 |
| Nc1n[nH]c(=O)c2c1ncn2[C@H]1C[C@@H](O)[C@@H](CO)O1 [CBK201169] | 93.7 |
| Cn1cc([C@H]2C[C@@H](O)[C@@H](CO)O2)c(=O)[nH]c1=O [CBK201171] | 88.9 |
| O=c1[nH]cc([C@@H]2O[C@H](CO)[C@H](O)C2O)c(=O)[nH]1 (stereo partly shown) [CBK201172] | 103 |
| O=C(O)/C=C/c1cn([C@H]2C[C@@H](O)[C@@H](CO)O2)c(=O)[nH]c1=O [CBK201174] | 92.9 |
| [N-]=[N+]=Nc1nc2c(N)ncnc2n1C1CC(O)C(CO)O1 (stereo not shown) [CBK201178] | 95.2 |
| O=c1[nH]c(=O)n([C@@H]2O[C@H](CO)[C@H](O)C2O)cc1Br (stereo partly shown) [CBK201180] | 87.2 |
| OCC1OC(n2cnc3c(Oc4ccccc4)ncnc32)CC1O (stereo not shown) [CBK201181] | 91.5 |
| Nc1ncnc2c1nc1n2[C@H]2C[C@@H](O)[C@H](O2)[C@H]1O [CBK201183] | 96.2 |
